Measurements taken from US11332477B2, “Nitrogen containing heterocycle substituted benzoxazine oxazolidinone compound and preparation method and use thereof” (INSTITUTE OF MATERIA MEDICA, CHINESE ACADEMY OF MEDICAL …, priority 2017, dated 2022).
Converted amounts (≈) assume the structure as drawn.

Assays:
[1] = tested on: mitochondrial protein synthesis; assay: Activity of inhibiting mitochondrial protein synthesis; format: biochemical; details: mitochondrial protein synthesis inhibition, Table 3
Method: The experimental steps were carried out according to the literature (Antimicrobial Agents and Chemotherapy, 2006, 50 (6), 2042-2049).

[2] = tested on: Mycobacterium tuberculosis H37Rv; assay: Anti-tuberculosis activity test in vitro (Microplate Alamar Blue Assay, MABA); format: cell-based; details: M. tuberculosis H37Rv, MABA, 7H9 medium, method says MIC90 was calculated, read-out: MIC
Vero cells = assay: Cytotoxicity test (MTT); format: cell-based; details: Chlorocebus sabaeus; Vero cells, MTT, 48 hours of incubation, highest concentration 64 μg/mL; read-out: IC50

Compound | IC50 [1] [µg/mL] | MIC [2] [µg/mL] | melting point [°C] | IC50 (Vero cells) [µg/mL]
NC[C@@H]1OC(=O)N2c3cc(F)c(N4CCSCC4)cc3OC[C@@H]12 [Compound 1, (3S,3aS)-3-(Aminomethyl)-8-fluoro-7-thiomorpholino-3a, 4-dihydro-1H,3H-benzo[b]ox azolo[3,4-d][1,4]oxazin-1-one] | 75.51 (≈ 222 µM) | 0.029 (≈ 0.0854 µM) | 155 to 157 | 36 (≈ 106 µM)
CC(C)C(=O)NC[C@@H]1OC(=O)N2c3cc(F)c(N4CCSCC4)cc3OC[C@@H]12 [Compound 5, N-(((3S,3aS)-8-Fluoro-1-oxo-7-thiomorpholino-3a,4-dihydro-1H,3H-benzo[b]oxazolo[3,4-d][1,4]oxazin-3-yl)methyl)isobutyramide] | >100 | 0.095 (≈ 0.232 µM) | 193 to 195 | > 64
O=C(NC[C@@H]1OC(=O)N2c3cc(F)c(N4CCSCC4)cc3OC[C@@H]12)C1CC1 [Compound 6, N-(((3S,3aS)-8-Fluoro-1-oxo-7-thiomorpholino-3a,4-dihydro-1H,3H-benzo[b]oxazolo[3,4-d][1,4]oxazin-3-yl)methyl)cyclopropanecarboxamide] | >100 | 0.034 (≈ 0.0834 µM) | 209 to 211 | > 64
O=C(NC[C@@H]1OC(=O)N2c3cc(F)c(N4CCSCC4)cc3OC[C@@H]12)C1CCC1 [Compound 7, N-(((3S,3aS)-8-Fluoro-1-oxo-7-thiomorpholino-3a,4-dihydro-1H,3H-benzo[b]oxazolo[3,4-d][1,4]oxazin-3-yl)methyl)cyclobutanecarboxamide] | 53.69 (≈ 127 µM) | 0.03 (≈ 0.0712 µM) | 176 to 178 | > 64
COC(=O)NC[C@@H]1OC(=O)N2c3cc(F)c(N4CCSCC4)cc3OC[C@@H]12 [Compound 8, Methyl (((3S,3aS)-8-Fluoro-1-oxo-7-thiomorpholino-3a,4-dihydro-1H,3H-benzo[b]oxazolo[3,4-d][1,4]oxazin-3-yl)methyl)carbamate] | >100 | 0.031 (≈ 0.078 µM) | 155 to 156 | > 64
O=C1O[C@@H](CNc2ccon2)[C@@H]2COc3cc(N4CCSCC4)c(F)cc3N12 [Compound 9, (3S,3aS)-8-Fluoro-3-((isoxazol-3-ylamino)methyl)-7-thiomorpholino-3a,4-dihydro-1H,3H-benzo[b]oxazolo[3,4-d][1,4]oxazin-1-one] | >100 | 0.025 (≈ 0.0615 µM) | 148 to 150 | > 64
O=C(NC[C@@H]1OC(=O)N2c3cc(F)c(N4CCSCC4)cc3OC[C@@H]12)c1ccncc1 [Compound 10, N-(((3S,3aS)-8-Fluoro-1-oxo-7-thiomorpholino-3a,4-dihydro-1H,3H-benzo[b]oxazolo[3,4-d][1,4]oxazin-3-yl)methyl)isonicotinamide] | >100 | 0.16 (≈ 0.36 µM) | 135 to 137 | > 64
O=C(NC[C@@H]1OC(=O)N2c3cc(F)c(N4CCSCC4)cc3OC[C@@H]12)c1cnccn1 [Compound 11, N-(((3S,3aS)-8-Fluoro-1-oxo-7-thiomorpholino-3a,4-dihydro-1H,3H-benzo[b]oxazolo[3,4-d][1,4]oxazin-3-yl)methyl)pyrazine-2-carboxamide] | >100 | 0.115 (≈ 0.258 µM) | 212 to 214 | 40.7 (≈ 91.3 µM)
O=C1O[C@@H](Cn2ccnn2)[C@@H]2COc3cc(N4CCSCC4)c(F)cc3N12 [Compound 12, (3S,3aS)-3-((1H-1,2,3-Triazol-1-yl)methyl)-8-fluoro-7-thiomorpholino-3a,4-dihydro-1H,3H-benzo[b]oxazolo[3,4-d][1,4]oxazin-1-one] | >100 | 0.227 (≈ 0.58 µM) | 223 to 225 | > 64
CC(=O)NC[C@@H]1OC(=O)N2c3cc(F)c(N4CC[S+]([O-])CC4)cc3OC[C@@H]12 [Compound 23, N-(((3S,3aS)-8-Fluoro-1-oxo-7-(1-oxidothiomorpholino)-3a,4-dihydro-1H,3H-benzo[b]oxazolo[3,4-d][1,4]oxazin-3-yl)methyl)acetamide] | 60.57 (≈ 152 µM) | 0.442 (≈ 1.11 µM) | 214 to 216 | > 64
O=C(NC[C@H]1OC(=O)N2c3cc(F)c(N4CCSCC4)cc3OC[C@H]12)C1CCC1 [Compound 29, N-(((3R,3aR)-8-Fluoro-1-oxo-7-thiomorpholino-3a,4-dihydro-1H,3H-benzo[b]oxazolo[3,4-d][1,4]oxazin-3-yl)methyl)cyclobutane carboxamide] | >100 | 0.219 (≈ 0.52 µM) | 183 to 185 | > 64
O=C1O[C@H](CNc2ccon2)[C@H]2COc3cc(N4CCSCC4)c(F)cc3N12 [Compound 31, (3R,3aR)-8-Fluoro-3-((isoxazol-3-ylamino)methyl)-7-thiomorpholino-3a,4-dihydro-1H, 3H-benzo[b]oxazolo[3,4-d][1,4]oxazin-1-one] | >100 | 0.123 (≈ 0.303 µM) | 149 to 150 | > 64
